Laboratory results taken from the supplement of paper PMC11281043.

Assays:
Conditions in all cases: exposure: 6-8 hpf to 5 dpf, scored at 6 dpf
Danio rerio embryo/larva [1] = assay: max % larvae with pigmentation defects across tested concentrations; higher = more toxic
Danio rerio embryo/larva [2] = assay: max % larvae with edema across tested concentrations; higher = more toxic; extreme values may be limits of the assay
Danio rerio embryo/larva [3] = assay: max % larvae with tail defects across tested concentrations; higher = more toxic; extreme values may be limits of the assay
Danio rerio embryo/larva [4] = assay: max % larvae with blood pooling across tested concentrations; higher = more toxic; extreme values may be limits of the assay
Danio rerio embryo/larva [5] = assay: max % larvae with spinal defects across tested concentrations; higher = more toxic; extreme values may be limits of the assay
Danio rerio embryo/larva [6] = assay: max % larvae with abnormal position across tested concentrations; higher = more toxic; extreme values may be limits of the assay
Danio rerio embryo/larva [7] = assay: max % larvae with craniofacial defects across tested concentrations; higher = more toxic; extreme values may be limits of the assay
Danio rerio embryo/larva [8] = assay: max % larvae with uninflated swim bladder across tested concentrations; higher = more toxic; extreme values may be limits of the assay

For `O=C(O)C(F)(F)C(F)(F)C(F)(F)C(F)(F)C(F)(F)C(F)(F)C(F)(F)F` [Potassium perfluorooctanoate] (max tested concentration (log10 uM): 2), the max % larvae (Danio rerio embryo/larva [1]) was 0%, the max % larvae (Danio rerio embryo/larva [2]) was 9.09% and the max % larvae (Danio rerio embryo/larva [3]) was 2.27%. For the same compound, the max % larvae (Danio rerio embryo/larva [4]) was 9.09%, the max % larvae (Danio rerio embryo/larva [5]) was 0% and the max % larvae (Danio rerio embryo/larva [6]) was 2.27%. For the same compound, the max % larvae (Danio rerio embryo/larva [7]) was 9.09% and the max % larvae (Danio rerio embryo/larva [8]) was 9.09%.

`C=C(C)C(=O)OCC(F)(F)C(F)(F)C(F)(F)F` [(Perfluoropropyl)methyl methacrylate] (max tested concentration (log10 uM): 2) gave a max % larvae (Danio rerio embryo/larva [1]) of 4.17%, a max % larvae (Danio rerio embryo/larva [2]) of 8.33% and a max % larvae (Danio rerio embryo/larva [3]) of 4.17%. It also gave a max % larvae (Danio rerio embryo/larva [4]) of 0%, a max % larvae (Danio rerio embryo/larva [5]) of 0% and a max % larvae (Danio rerio embryo/larva [6]) of 4.17%. The max % larvae (Danio rerio embryo/larva [7]) was 8.33% and the max % larvae (Danio rerio embryo/larva [8]) was 8.33%.

For `O=C(O)C(F)(F)C(F)(F)C(F)(F)C(F)(F)C(F)(F)C(F)(F)C(F)(F)F` [Ammonium perfluorooctanoate] (max tested concentration (log10 uM): 2), the max % larvae (Danio rerio embryo/larva [1]) was 0%, the max % larvae (Danio rerio embryo/larva [2]) was 0% and the max % larvae (Danio rerio embryo/larva [3]) was 0%. It also gave a max % larvae (Danio rerio embryo/larva [4]) of 0%, a max % larvae (Danio rerio embryo/larva [5]) of 0% and a max % larvae (Danio rerio embryo/larva [6]) of 0%. It also gave a max % larvae (Danio rerio embryo/larva [7]) of 0% and a max % larvae (Danio rerio embryo/larva [8]) of 9.09%.

Work on `O=S(=O)(Cl)C(F)(F)C(F)(F)C(F)(F)C(F)(F)C(F)(F)C(F)(F)C(F)(F)C(F)(F)F` [Perfluoro-1-octanesulfonyl chloride] (max tested concentration (log10 uM): 2) yielded a max % larvae (Danio rerio embryo/larva [1]) of 0%, a max % larvae (Danio rerio embryo/larva [2]) of 100% and a max % larvae (Danio rerio embryo/larva [3]) of 100%. It also gave a max % larvae (Danio rerio embryo/larva [4]) of 0%, a max % larvae (Danio rerio embryo/larva [5]) of 25% and a max % larvae (Danio rerio embryo/larva [6]) of 25%. For the same compound, the max % larvae (Danio rerio embryo/larva [7]) was 100% and the max % larvae (Danio rerio embryo/larva [8]) was 100%.

Work on `FC(F)C(F)(F)COCC1CO1` (stereo unspecified) [((2,2,3,3-Tetrafluoropropoxy)methyl)oxirane] (max tested concentration (log10 uM): 2) yielded a max % larvae (Danio rerio embryo/larva [1]) of 0%, a max % larvae (Danio rerio embryo/larva [2]) of 31.2% and a max % larvae (Danio rerio embryo/larva [3]) of 0%. For the same compound, the max % larvae (Danio rerio embryo/larva [4]) was 0%, the max % larvae (Danio rerio embryo/larva [5]) was 0% and the max % larvae (Danio rerio embryo/larva [6]) was 8.33%. It also gave a max % larvae (Danio rerio embryo/larva [7]) of 16.7% and a max % larvae (Danio rerio embryo/larva [8]) of 91.7%.

`OCC(F)(F)C(F)(F)C(F)(F)C(F)(F)C(F)(F)C(F)(F)F` [6:1 Fluorotelomer alcohol] (max tested concentration (log10 uM): 2) showed a max % larvae (Danio rerio embryo/larva [1]) of 0%, a max % larvae (Danio rerio embryo/larva [2]) of 25% and a max % larvae (Danio rerio embryo/larva [3]) of 12.5%. For the same compound, the max % larvae (Danio rerio embryo/larva [4]) was 16.7%, the max % larvae (Danio rerio embryo/larva [5]) was 12.5% and the max % larvae (Danio rerio embryo/larva [6]) was 4.17%. It also gave a max % larvae (Danio rerio embryo/larva [7]) of 25% and a max % larvae (Danio rerio embryo/larva [8]) of 25%.

With `O=S(=O)(OCC(F)(F)F)C(F)(F)C(F)(F)C(F)(F)C(F)(F)F` [2,2,2-Trifluoroethyl perfluorobutanesulfonate] (max tested concentration (log10 uM): 2) the max % larvae (Danio rerio embryo/larva [1]) was 0%, the max % larvae (Danio rerio embryo/larva [2]) was 54.5% and the max % larvae (Danio rerio embryo/larva [3]) was 4.55%. The max % larvae (Danio rerio embryo/larva [4]) was 31.8%, the max % larvae (Danio rerio embryo/larva [5]) was 0% and the max % larvae (Danio rerio embryo/larva [6]) was 11.4%. It also gave a max % larvae (Danio rerio embryo/larva [7]) of 9.09% and a max % larvae (Danio rerio embryo/larva [8]) of 90.9%.

Compound `O=C(O)C(F)(F)C(F)(F)OC(F)(F)F` [Perfluoro-3-methoxypropanoic acid] (max tested concentration (log10 uM): 2) has a max % larvae (Danio rerio embryo/larva [1]) of 0%, a max % larvae (Danio rerio embryo/larva [2]) of 8.33% and a max % larvae (Danio rerio embryo/larva [3]) of 0%. For the same compound, the max % larvae (Danio rerio embryo/larva [4]) was 16.7%, the max % larvae (Danio rerio embryo/larva [5]) was 0% and the max % larvae (Danio rerio embryo/larva [6]) was 0%. The max % larvae (Danio rerio embryo/larva [7]) was 0% and the max % larvae (Danio rerio embryo/larva [8]) was 0%.

Compound `O=C(O)C(F)(F)C(F)(F)C(=O)O` [Perfluorobutanedioic acid] (max tested concentration (log10 uM): 2) has a max % larvae (Danio rerio embryo/larva [1]) of 0%, a max % larvae (Danio rerio embryo/larva [2]) of 8.33% and a max % larvae (Danio rerio embryo/larva [3]) of 0%. It also gave a max % larvae (Danio rerio embryo/larva [4]) of 8.33%, a max % larvae (Danio rerio embryo/larva [5]) of 0% and a max % larvae (Danio rerio embryo/larva [6]) of 4.17%. The max % larvae (Danio rerio embryo/larva [7]) was 0% and the max % larvae (Danio rerio embryo/larva [8]) was 0%.

In the case of `FC(F)(F)C(F)(F)C(F)(F)CC1CO1` (stereo unspecified) [1H,1H-Heptafluorobutyl epoxide] (max tested concentration (log10 uM): 2), the max % larvae (Danio rerio embryo/larva [1]) is reported as 0%, the max % larvae (Danio rerio embryo/larva [2]) is reported as 9.09% and the max % larvae (Danio rerio embryo/larva [3]) is reported as 9.09%. It also gave a max % larvae (Danio rerio embryo/larva [4]) of 9.09%, a max % larvae (Danio rerio embryo/larva [5]) of 0% and a max % larvae (Danio rerio embryo/larva [6]) of 0%. The max % larvae (Danio rerio embryo/larva [7]) was 9.09% and the max % larvae (Danio rerio embryo/larva [8]) was 9.09%.

Compound `OCCCCC(F)(F)C(F)(F)C(F)(F)C(F)(F)F` [4:4 Fluorotelomer alcohol] (max tested concentration (log10 uM): 2) has a max % larvae (Danio rerio embryo/larva [1]) of 0%, a max % larvae (Danio rerio embryo/larva [2]) of 93.8% and a max % larvae (Danio rerio embryo/larva [3]) of 15.6%. The max % larvae (Danio rerio embryo/larva [4]) was 0%, the max % larvae (Danio rerio embryo/larva [5]) was 0% and the max % larvae (Danio rerio embryo/larva [6]) was 18.8%. It also gave a max % larvae (Danio rerio embryo/larva [7]) of 81.2% and a max % larvae (Danio rerio embryo/larva [8]) of 93.8%.

`O=S(=O)(O)CCC(F)(F)C(F)(F)C(F)(F)C(F)(F)C(F)(F)C(F)(F)F` [6:2 Fluorotelomer sulfonic acid] (max tested concentration (log10 uM): 2) showed a max % larvae (Danio rerio embryo/larva [1]) of 0%, a max % larvae (Danio rerio embryo/larva [2]) of 4.17% and a max % larvae (Danio rerio embryo/larva [3]) of 0%. It also gave a max % larvae (Danio rerio embryo/larva [4]) of 0%, a max % larvae (Danio rerio embryo/larva [5]) of 0% and a max % larvae (Danio rerio embryo/larva [6]) of 4.17%. The max % larvae (Danio rerio embryo/larva [7]) was 0% and the max % larvae (Danio rerio embryo/larva [8]) was 0%.

For `FC(F)(F)C(F)(F)C(F)(F)C(F)(F)C(F)(F)C(F)(F)C(F)(F)I` [1-Iodopentadecafluoroheptane] (max tested concentration (log10 uM): 2), the max % larvae (Danio rerio embryo/larva [1]) was 0%, the max % larvae (Danio rerio embryo/larva [2]) was 30% and the max % larvae (Danio rerio embryo/larva [3]) was 0%. The max % larvae (Danio rerio embryo/larva [4]) was 16.7%, the max % larvae (Danio rerio embryo/larva [5]) was 8.33% and the max % larvae (Danio rerio embryo/larva [6]) was 10.4%. For the same compound, the max % larvae (Danio rerio embryo/larva [7]) was 10% and the max % larvae (Danio rerio embryo/larva [8]) was 80%.

In the case of `FC(F)(F)C(F)(F)CNCC(F)(F)C(F)(F)F` [Bis(1H,1H-perfluoropropyl)amine] (max tested concentration (log10 uM): 2), the max % larvae (Danio rerio embryo/larva [1]) is reported as 0%, the max % larvae (Danio rerio embryo/larva [3]) is reported as 0% and the max % larvae (Danio rerio embryo/larva [4]) is reported as 0%. For the same compound, the max % larvae (Danio rerio embryo/larva [5]) was 0%, the max % larvae (Danio rerio embryo/larva [6]) was 0% and the max % larvae (Danio rerio embryo/larva [7]) was 0%. The max % larvae (Danio rerio embryo/larva [8]) was 16.7%.
